# Values quoted from earlier work in patent publication US11103580B2, “Methods and systems for treating cell proliferation disorders” (Immunolight, LLC, priority 2007, dated 2021).
# Read-outs that look alike come from different tables or passages of the source.
# Experiments:
# leukocytes = details: administered orally to a patient
# [1] = for Length of photosensitization: Table 3, known photosensitizers
# tumors = details: in vivo
# rapidly dividing tissue = details: in vivo
# [2] = in excess
compound,measurement,setting,value
"COc1c2occc2cc2ccc(=O)oc12 [Compound 8-MOP, 8-methoxypsoralen]",inducing an apoptosis of leukocytes,leukocytes,effective at inducing an apoptosis of leukocytes
same,safety,leukocytes,safe
"Oc1cccc(-c2c3nc(c(-c4cccc(O)c4)c4ccc([nH]4)c(-c4cccc(O)c4)c4nc(c(-c5cccc(O)c5)c5ccc2[nH]5)CC4)C=C3)c1 [Foscan, Tetra (m-hydroxyphenyl) chlorin]",Length of photosensitization,[1],2 weeks
same,duration of skin photosensitivity,[1]; approximately,approximately 2 weeks
"CC(=O)[O-].CC(=O)[O-].CCc1c(CC)c2cc3nc(cnc4cc(OCCOCCOCCOC)c(OCCOCCOCCOC)cc4ncc4nc(cc1[n-]2)C(CCCO)=C4C)C(C)=C3CCCO.O.[Lu+3] [Lutetium texaphryin, Motexafin lutetium]",selectivity for tumors compared to normal tissues,tumors,one of the greatest reported selectivities for tumors
same,Length of photosensitization,[1],24 to 48 h
same,duration of skin photosensitivity,[1]; clinical use,24 to 48 h
C/C1=C2/[N-][C@H]([C@H](CC(N)=O)[C@@]2(C)CCC(=O)NC[C@@H](C)OP(=O)([O-])O[C@H]2[C@@H](O)[C@@H](n3cnc4cc(C)c(C)cc43)O[C@@H]2CO)[C@]2(C)N=C(/C(C)=C3N=C(/C=C4N=C1[C@@H](CCC(N)=O)C\4(C)C)[C@@H](CCC(N)=O)[C@]\3(C)CC(N)=O)[C@@H](CCC(N)=O)[C@]2(C)CC(N)=O.[CH3-].[Co+3] [methylcobalamin],uptake in rapidly dividing tissue,rapidly dividing tissue,increased uptake
Cobalt-57-cyanocobalamin,uptake in rapidly dividing tissue,rapidly dividing tissue,increased uptake
Vitamin B12,excretion,[2],excreted by gloinerular filtration
same,water solubility,,water soluble
